Measurements reported in PMC8556396, “Statin-mediated disruption of Rho GTPase prenylation and activity inhibits respiratory syncytial virus infection” (Communications Biology, 2021).
Structures can show the parent of a compound that is named as a salt.

Test system: RSV-GFP
Assay: microbe, parasite or virus in culture
Assay type: cell-based, Respiratory syncytial virus
Details: 10.0 µM, HEp-2, RSV-GFP MOI 0.5, single replicate
Procedure: The following morning, cells were washed twice with serum-free EMEM and treated with RSV-GFP (MOI 0.5) in a minimal volume of serum-free media for 90 min under frequent agitation. Unbound virus was then removed and replaced with fresh serum-containing EMEM. All drug additions were performed 2 h post-viral exposure, unless otherwise stated.
Automated quantification of infection rates from fluorescent images were performed in CellProfiler (v2.2.0)[86]. Major steps in the image analysis pipeline included: (1) background subtraction and smoothing, (2) segmentation of nuclei, (3) segmentation of GFP-fluorescent area, (4) object masking, and (5) measurement of nuclear number, size, and intensity. Infection rate was quantified from the ratio of nuclei within GFP-fluorescent area to the total number of nuclei (Fig. 1b). This method of analysis accounts for in vitro syncytium formation induced by RSV, whereby a single infected cell may arise from the fusion of multiple cells. Mean nuclear fluorescent intensity and size was quantified as a measure of cell viability.
The MicroSource […] Collection (Discovery Systems Inc.) consisting of 2400 compounds was screened using the previously outlined RSV-GFP infection assay protocol. Robot-assisted addition of drugs was performed within 1 h of RSV-GFP infection and infection rates were assayed 48 h p.i. Drugs were provided as 10 mM stocks in DMSO and serial diluted to a final concentration of 10 µM, resulting in a final DMSO concentration of 0.1% v/v. […] Hits were selected based on the criteria that: (a) the tested drug caused a >50% reduction in infection rate and (b) was not overtly cytotoxic (<10% change in mean nuclear intensity relative to DMSO control). Z-factors were calculated on a per-plate basis to monitor assay quality.

Row | Compound | RSV-GFP inhibition (%)
1 | CC1(C)C(=O)C=C[C@]2(C)[C@H]3CC[C@@]4(C)[C@H](c5ccoc5)OC(=O)[C@H]5O[C@]54[C@]3(C)C=C[C@@H]12 [7-Desacetoxy-6,7-dehydrogedunin] | 69.38
2 | COc1cc2c(cc1OC)[C@@H]1C(=O)c3c(O)cc4c(c3O[C@@H]1CO2)C=CC(C)(C)O4 [Alpha-toxicarol] | 63.58
3 | CC(=O)Oc1cc2c(c(C)c1OC(C)=O)CC=C1[C@@]2(C)CC[C@@]2(C)C3C[C@](C)(C(=O)O)CC[C@]3(C)CC[C@]12C (some centres unmarked) [Dihydrocelastryl diacetate] | 89.96
4 | CCc1c2c(nc3ccc(OC(=O)N4CCC(N5CCCCC5)CC4)cc13)-c1cc3c(c(=O)n1C2)COC(=O)[C@]3(O)CC.Cl [Irinotecan hydrochloride] | 55.56
5 | O=C1[O][Pt]2([NH][C@@H]3CCCC[C@H]3[NH]2)[O]C1=O [Oxaliplatin] | 88.7
6 | CC[C@@H](C(=O)[C@@H](C)[C@@H](O)[C@H](C)[C@@H]1O[C@@H]([C@@H](CC)C(=O)O)CC[C@@H]1C)[C@H]1O[C@]2(C=C[C@@H](O)[C@]3(CC[C@@](C)([C@H]4CC[C@](O)(CC)[C@H](C)O4)O3)O2)[C@H](C)C[C@@H]1C [Salinomycin, sodium] | 96.45
7 | CC(=O)OC1CCC23C(=O)OC45CCC(C6=CC(=O)OC6)C4(C)CCC2C5CCC3(O)C1 (centres unmarked) [Strophanthidinic acid lactone acetate] | 82.33
8 | Antimycin A1 | 79.49
9 | Benzalkonium chloride | 77.34

Same assay, conditions: HEp-2, RSV-GFP

Row | Compound | RSV inhibition in the screen
10 | CC(C)n1c(/C=C/C(O)CC(O)CC(=O)O)c(-c2ccc(F)cc2)c2ccccc21 (centres unmarked) [Fluvastatin] | inhibit RSV at low micromolar concentrations
11 | O=C(O)C[C@H](O)C[C@H](O)/C=C/c1c(C2CC2)nc2ccccc2c1-c1ccc(F)cc1 [Pitavastatin calcium] | inhibit RSV at low micromolar concentrations

Same assay, conditions: human respiratory syncytial virus, HEp-2, read-out: RSV-GFP inhibition (%)

Row | Compound | inhibition at 10 µM [%]
12 | C#C[C@]1(OC(C)=O)CC[C@H]2[C@@H]3CCC4=CC(=NO)CC[C@@H]4[C@H]3CC[C@@]21CC (mixture of isomers) [Norgestimate] | 55
13 | C#CC1(O)CC[C@H]2[C@@H]3CCC4=CC(=O)CC[C@@H]4[C@H]3CC[C@@]21CC (mixture of isomers) [Norgestrel] | 64.1
14 | COc1ccc(-c2cc(=O)c3ccccc3o2)cc1 [4’-Methoxyflavone] | 59.9
15 | O=c1cc(-c2ccc(O)cc2)oc2ccc(O)cc12 [6,4’-Dihydroxyflavone] | 75.3
16 | CCCCC(CC)CNC(=N)NC(=N)NCCCCCCNC(=N)NC(=N)NCC(CC)CCCC (centres unmarked) [Alexidine hydrochloride] | 66.8
17 | Nc1c2ccccc2nc2ccccc12 [Aminacrine] | 58.3
18 | CC[C@@]1(O)C(=O)OCc2c1cc1n(c2=O)Cc2cc3ccccc3nc2-1 [Camptothecin] | 55.7
19 | CCCCCCCCCCCCCCCC[N+](C)(C)C [Cetrimonium bromide] | 71.2
20 | Cc1nc2ccccc2n1Cc1ccc(Cl)cc1 [Chlormidazole] | 68.5
21 | C=C[C@@]1(C)CC(=O)[C@]2(O)[C@@]3(C)[C@@H](O)CCC(C)(C)[C@@H]3[C@H](O)[C@H](OC(C)=O)[C@@]2(C)O1 [Colforsin] | 72.5
22 | C[C@@H]1C[C@@H]([C@H](O)CC2CC(=O)NC(=O)C2)C(=O)[C@@H](C)C1 [Cycloheximide] | 75
23 | CC1=C2C[C@H]3[C@@H](CC=C4C[C@@H](O)CC[C@@]43C)[C@@H]2CC[C@]12O[C@@H]1C[C@H](C)CN[C@H]1[C@H]2C [Cyclopamine] | 86
24 | Cc1cc(N)c2ccccc2[n+]1CCCCCCCCCC[n+]1c(C)cc(N)c2ccccc21 [Dequalinium chloride] | 63.8
25 | C[C@]12CC[C@H](O)C[C@H]1CC[C@@H]1[C@@H]2C[C@@H](O)[C@]2(C)[C@@H](C3=CC(=O)OC3)CC[C@]12O [Digoxigenin] | 85.1
26 | Cc1c(O)c(O)cc2c1CC=C1[C@@]2(C)CC[C@@]2(C)[C@@H]3C[C@](C)(C(=O)O)CC[C@]3(C)CC[C@]12C [Dihydrocelastrol] | 82.6
27 | C[C@]12CCC(=O)C=C1[C@@H]1C[C@@H]1[C@H]1[C@@H]3[C@@H]4C[C@@H]4[C@@]4(CCC(=O)O4)[C@@]3(C)CC[C@@H]12 [Drospirenone] | 68.3
28 | CC[C@H]1CN2CCc3cc(OC)c(OC)cc3[C@@H]2C[C@@H]1C[C@H]1NCCc2cc(OC)c(OC)cc21 [Emetine dihydrochloride] | 100
29 | CC(C)n1c(/C=C/C(O)CC(O)CC(=O)O)c(-c2ccc(F)cc2)c2ccccc21 (centres unmarked) [Fluvastatin] | 73.2
30 | CN(C)c1ccc(C(=C2C=CC(=[N+](C)C)C=C2)c2ccc(N(C)C)cc2)cc1 [Gentian violet] | 86.3
31 | CC(=O)O[C@H]1CC[C@@]2(C)[C@H](CC[C@@H]3[C@@H]2CC[C@]2(C)[C@@H](C4=CC(=O)OC4)[C@@H](OC(C)=O)C[C@]32O)C1 [Gitoxigenin diacetate] | 91.8

Row | Compound | inhibition at 10 µM [%]
32 | C[C@H]1O[C@@H](O[C@H]2[C@@H](O)C[C@H](O[C@H]3[C@@H](O)C[C@H](O[C@H]4CC[C@@]5(C)[C@H](CC[C@@H]6[C@@H]5CC[C@]5(C)[C@@H](C7=CC(=O)OC7)[C@@H](O)C[C@]65O)C4)O[C@@H]3C)O[C@@H]2C)C[C@H](O)[C@@H]1O [Gitoxin] | 85.7
33 | Oc1c(Cl)cc(Cl)c(Cl)c1Cc1c(O)c(Cl)cc(Cl)c1Cl [Hexachlorophene] | 83.2
34 | CC(=O)O[C@H]1C[C@H](O[C@H]2[C@@H](O)C[C@H](O[C@H]3[C@@H](O)C[C@H](O[C@H]4CC[C@@]5(C)[C@H](CC[C@@H]6[C@@H]5C[C@@H](O)[C@]5(C)[C@@H](C7=CC(=O)OC7)CC[C@]65O)C4)O[C@@H]3C)O[C@@H]2C)O[C@H](C)[C@H]1O[C@@H]1O[C@H](CO)[C@@H](O)[C@H](O)[C@H]1O [Lanatoside C] | 100
35 | CN(C)c1ccc2nc3ccc(=[N+](C)C)cc-3sc2c1 [Methylene blue] | 67.8
36 | CC[C@@]1([C@@H]2O[C@@H]([C@H]3O[C@@](O)(CO)[C@H](C)C[C@@H]3C)C[C@@H]2C)CC[C@H]([C@]2(C)CC[C@]3(C[C@H](O)[C@@H](C)[C@@H]([C@@H](C)[C@@H](OC)[C@H](C)C(=O)O)O3)O2)O1 [Monensin A] | 93.9
37 | COc1c(C)c2c(c(O)c1C/C=C(\C)CCC(=O)OCCN1CCOCC1)C(=O)OC2 [Mycophenolate mofetil] | 98.4
38 | COc1c(C)c2c(c(O)c1C/C=C(\C)CCC(=O)O)C(=O)OC2 [Mycophenolic acid] | 98.8
39 | CCCCCCCCCc1ccc(OCCOCCOCCOCCOCCOCCOCCOCCOCCO)cc1 [Nonoxynol-9] | 69.2
40 | C#C[C@]1(OC(C)=O)CC[C@H]2[C@@H]3CCC4=CC(=O)CC[C@@H]4[C@H]3CC[C@@]21C [Norethindrone acetate] | 54.2
41 | C#C[C@]1(O)CC[C@H]2[C@@H]3CCC4=C(CCC(=O)C4)[C@H]3CC[C@@]21C [Norethynodrel] | 75.4
42 | C[C@@H]1O[C@@H](O[C@H]2C[C@@H](O)[C@]3(CO)[C@H]4[C@H](O)C[C@]5(C)[C@@H](C6=CC(=O)OC6)CC[C@]5(O)[C@@H]4CC[C@]3(O)C2)[C@H](O)[C@H](O)[C@H]1O [Ouabain] | 100
43 | N=C(N)c1ccc(OCCCCCOc2ccc(C(=N)N)cc2)cc1 [Pentamidine isethionate] | 60.2
44 | CO[C@H]1[C@H](O)[C@H](O[C@H]2CC[C@@]3(C=O)[C@H](CC[C@@H]4[C@@H]3CC[C@]3(C)[C@@H](C5=CC(=O)OC5)CC[C@]43O)C2)O[C@@H](C)[C@@H]1O [Peruvoside] | 98.2
45 | O=C(O)C[C@H](O)C[C@H](O)/C=C/c1c(C2CC2)nc2ccccc2c1-c1ccc(F)cc1 [Pitavastatin calcium] | 63.4
46 | COC(=O)[C@]1(C)CC[C@]2(C)CC[C@]3(C)C4=CC=C5C(=CC(=O)C(O)=C5C)[C@]4(C)CC[C@@]3(C)[C@@H]2C1 [Pristimerin] | 74.1
47 | CC(=O)[C@H]1CC[C@H]2[C@@H]3CCC4=CC(=O)CC[C@]4(C)[C@H]3CC[C@]12C [Progesterone] | 50.5
48 | C[C@@H]1O[C@@H](O[C@@H]2C=C3CC[C@@H]4[C@H](CC[C@]5(C)[C@@H](c6ccc(=O)oc6)CC[C@]45O)[C@@]3(C)CC2)[C@H](O)[C@H](O)[C@H]1O [Proscillaridin] | 81.6
49 | C[C@]12CC[C@H]3[C@@H](CC[C@]4(O)C[C@@H](O)CC[C@]34C=O)[C@@]1(O)CC[C@@H]2C1=CC(=O)OC1 [Strophanthidin] | 90.4
50 | CCC(=O)O[C@H]1CC[C@H]2[C@@H]3CCC4=CC(=O)CC[C@]4(C)[C@H]3CC[C@]12C [Testosterone propionate] | 84.7
